Measurements as given in patent US12653827B2, “Methods of treating indolent systemic mastocytosis” (Telios Pharma Inc., priority 2024, dated 2026).

Tests used:
[1] = cited from earlier work
[2] = test system: basophils; experiment: Comparison of BTK inhibitors by BAT (CD63 and CD203c); format: cell-based, human; conditions: concentration of 1 μM; 2 hours; blood from a healthy donor
Method: The BAT assay using the Flow Cast Basophil Activation Kit (Buhlmann Diagnostics; Catalog #B-CCR-STCON) was then conducted following manufacturer instructions by (1) stimulating the blood with anti-FcεR stimulation control in stimulation buffer with IL-3 and staining cells for CCR3 and CD63 for 15 minutes at 37° C., (2) lysing red blood cells and fixing cells with Lysing Reagent at room temperature for 10 minutes, (3) washing cells with Wash Buffer, and (4) acquiring data on a flow cytometer. Activated basophils were defined as CCR3+, low side scatter and CD63+. Percent of activated basophils was calculated as number of activated basophils over the total number of basophils. A four-parameter logistic regression was applied to determine the EC50 and EC90.
Blood samples were gently rocked at room temperature for 2 hours. […] Activated basophils were also defined as CCR3+, low side scatter and CD203c+.

[3] = test system: mast cells; experiment: Phosphorylation and degranulation markers in antigen-stimulated mast cells grown with chronic SCF (FIG. 21); format: cell-based; conditions: 1 μM, antigen 15 minutes
Method: Histamine release, CD63 expression, CD203c expression, pBTK (Y223) levels, pP38 (T180/Y182) levels, pPLCg1 (S1248) levels, pERK (T202/Y204) levels, and pS6 (S235/236) levels are shown. Mast cells were grown with continuous (chronic) exposure to SCF and then stimulated with antigen (Ag) for 15 minutes, leading to phosphorylation of multiple kinases, including pBTK, pPLCγ1, pP38, pERK, and pS6 ribosome. This stimulation increases degranulation markers, including CD63, CD203c, and histamine release.

[4] = ISM patients, cited from earlier work

Cc1nc(Nc2ncc(C(=O)Nc3c(C)cccc3Cl)s2)cc(N2CCN(CCO)CC2)n1 [dasatinib]
subjects who discontinued treatment due to toxicity ([1]; overall, AdvSM and ISM subjects): 34%
pleural effusion, grade 3 adverse event ([1]; patients overall): 10%

CC#CC(=O)N1CCC[C@H]1c1nc(-c2ccc(C(=O)Nc3ccccn3)cc2)c2c(N)nccn12 [acalabrutinib, (S)-4-(8-amino-3-(1-(but-2-ynoyl)pyrrolidin-2-yl)imidazo[1,5-a]pyrazin-1-yl)-N-(pyridin-2-yl)benzamide, reference compound]
effect on basophil activation (CD63+, CD203c+) [2]: no effect on basophil activation

Cn1cc(-c2cc3c(N4CCN(c5ncc([C@@](C)(N)c6ccc(F)cc6)cn5)CC4)ncnn3c2)cn1 [avapritinib]
phosphorylation and degranulation (activation) [3]: only partially inhibits activation
reduction of total symptom score compared to the placebo ([4]; 25 mg QD, Week 24, ISM-SAF survey): 5.7 points
adverse reactions leading to dose interruptions ([4]; 25 mg QD): 5%
treated subjects who failed to achieve a mean symptom score reduction of 30% ([4]; first 6 months of treatment): approximately half
subjects who achieved a 50% symptom score reduction ([4]; within the first 6 months of treatment): about a third
